Data from patent US10844404B2, “Engineered microorgansims and methods for improved crotyl alcohol production” (priority 2015, dated 2020).

Experiments:
[1] = test system: E. coli ATCC 8739 C strains; test: Crotyl alcohol tolerance study (Bioscreen growth curves, turbidity OD420-580); assay type: cell-based; conditions: 138 mM crotyl alcohol, FIG. 5B
Description: (§1) E. coli Str. K-12 substr. MG1655 strains 48 (wildtype) and 3-FEDB with multiple deletions (ΔyahkΔadhPΔyqhDΔadhE); and E. coli ATCC 8739 C strains (wildtype) and its variants 3-FISC (ΔadhE), 3-GAEB (ΔadhEΔyqhD), 3-GBOG (ΔadhEΔyqhDΔadhP), and 3-GDOB (ΔadhEΔyqhDΔadhPΔyahK) were struck for single colonies on LB agar from a glycerol freezer stock. Four single colonies per strain were picked and inoculated into 1 mL LB+55.7 mM glucose in deep well 96 well plates and grown at 37° C. overnight (16-20 hours). The optical density of the overnight culture was taken and cells were normalized to OD600=1 and spun down. Cells were resuspended in 1 mL of M9 minimal media+11.1 mM glucose. Cells were then spun down and washed again in 1 mL M9+11.1 mM glucose. Bioscreen honeycomb 2 plates (Cat. No. 9502550) were filled with 198 μL M9+11.1 mM glucose or M9+11.1 mM glucose+138 mM crotyl alcohol (Sigma-Aldrich). 2 μL washed cells were added to each well at N=4. Bioscreen honeycomb 2 plates were loaded into a bioscreen C MBR (Oy Growth Curves Ab Ltd) machine, an incubator system set to read turbidity at OD420-580 every 15 minutes at 37° C. For growth curve data, see FIG. 4A (E. coli Str. K-12 substr. MG1655 strains) and FIG. 4B (E. coli ATCC 8739 C variant strains).

[2] = test system: E. coli Str. K-12 substr. MG1655 strains; test: as above; assay type: cell-based; conditions: 138 mM crotyl alcohol, M9+11.1 mM glucose, 37° C., FIG. 4B
Description: as §1

## CC=CCO [crotyl alcohol, but-2-en-1-ol]
[1]; M9+11.1 mM glucose, 37° C., wild-type or parental strain
  growth in the presence of crotyl alcohol: growth is inhibited
[1]; strain 3-FIDC (ΔadhE)
  growth in the presence of crotyl alcohol: inhibited
[1]; strain 3-GAEB (ΔadhEΔyqhD)
  growth in the presence of crotyl alcohol: inhibited
[1]; strain 3-GBOB (ΔadhEΔyqhDΔadhP)
  growth in the presence of crotyl alcohol: while showing an initial lag grew on crotyl alcohol
[1]; strain 3-GBOG (ΔyahKΔadhPΔyqhDΔadhE)
  growth in the presence of crotyl alcohol: while showing an initial lag grew on crotyl alcohol
[2]; strain 3-FEDB (ΔyahKΔadhPΔyqhDΔadhE)
  growth in the presence of crotyl alcohol: while showing an initial lag grew on crotyl alcohol
[2]; wild-type or parental strain (48)
  growth in the presence of crotyl alcohol: growth is inhibited
